Reference: PMC12118337, “Development of a Peptide Inhibitor Targeting the C‐SH2 Domain of the SHP2 Phosphatase” (Chembiochem, 2025)
Residues, ends and D or L forms follow the SMILES beside them. *: point of attachment. 5FAM = O=C1OC2(c3ccc(O)cc3Oc3cc(O)ccc32)c2ccc(C(=O)*)cc21; X1 = O=C(O)C(C(=O)O)*

Experiments:
[1] = Peptide stability in Jurkat cell lysate (LC-MS); format: in vitro ADME; conditions: 200 µM peptide, WT Jurkat T cell lysate (RIPA buffer with protease inhibitor cocktail), 37 °C in the dark, 0, 6 or 24 h, peak area at 254 nm normalised to FAM (200 µM) internal control, three independent experiments
Description: 1. Cell culture and cell lines
Jurkat T cells were cultured in RPMI 1640 GlutaMAX (Thermo Fisher Scientific) supplemented with 10% heat-inactivated fetal bovine serum (FBS; Thermo Fisher Scientific), 100 U/mL penicillin (Sigma-Aldrich) and 100 µg/mL streptomycin (Sigma-Aldrich). HeLa cells were cultured in DMEM low glucose GlutaMAX (Thermo Fisher Scientific) supplemented with 10% fetal bovine serum (FBS; Thermo Fisher Scientific), 100 U/mL penicillin (Sigma-Aldrich) and 100 µg/mL streptomycin (Sigma-Aldrich).
Both cell lines tested negative for mycoplasma contamination.
2. Peptide stability in Jurkat cell lysate
The stability of FAM-labelled peptide 26 in WT Jurkat T cell lysate was evaluated by LC-MS. 106 Jurkat cells were washed with 1 mL PBS and lysed in 1 mL ice-cold RIPA buffer (25 mM Tris-HCl pH 7.5, 150 mM NaCl, 1% Nonidet P-40, 1% sodium deoxycholate, 0.1% SDS) containing cOmplete EDTA-free Protease Inhibitor Cocktail (Roche), on ice for 30 minutes vortexing every 10 minutes. Cell lysate was centrifuged at 20000 x g for 20 minutes at 4°C. […] The supernatant was collected on ice, filtered using a 13 mm syringe filter with a 0.2 µm PTFE membrane (Pall Life Sciences) and analysed by analytical HPLC-MS. The area under the peak at 254 nm corresponding to peptide 26 and FAM was determined. […]

[2] = system: CSK SH2 domain; assay: FP binding assay, CSK SH2 domain; conditions: 100 nM peptide, three independent experiments
Description: buffer and stored in 5 mL binding buffer at 4°C. His-tagged 3C protease (0.5 mg; EMBL) was added to the pooled eluted fractions and dialysed using Spectra Por Dialysis Tubing (MWCO 6-8 kDa, 23 mm; Spectrum Labs) in 1 L of binding buffer at 4°C for 3 hours, then overnight in fresh buffer. A new column was prepared by loading 2 mL Ni-NTA Agarose (Invitrogen) as a 50% slurry in EtOH. The column was washed with 10 mL H2O to remove the EtOH and equilibrated with 10 mL binding buffer. The protein/3C protease mixture was loaded onto the column and incubated for 1 hour at 4°C on a rocker. […] Protein purification was monitored by SDS-PAGE using NuPAGE 4-12% Bis-Tris Protein Gels (Invitrogen) run in MOPS buffer (50 mM MOPS, 50 mM Tris-HCl pH 7.7, 1 mM EDTA, 0.1% SDS) followed by Coomassie staining using Coomassie Brilliant Blue (Roth). […]
4. Fluorescence polarization
Fluorescence polarization (FP) was used to measure the binding of FAM-labelled peptides to the SHP2 C-SH2, SHP2 N-SH2, SHP2 PTP, CSK SH2 or Src SH2 domains. […]
concentration of 100 nM in a final volume of 200 µL. […] The FP was immediately measured on a Synergy H1 Microplate Reader (BioTek) with the excitation and emission monitored at 485 nm and 528 nm, respectively, over 30 minutes. FP values were automatically calculated by the Gen5 3.03 (BioTek) software associated with the microplate reader. […]

stability in Jurkat T cell lysate [1]: stable | binding to CSK SH2 domain compared to SHP2 C‐SH2 domain [2]: at least two orders of magnitude weaker
Structure (SMILES): CC[C@H](C)[C@H](NC(=O)[C@@H](NC(=O)[C@H](C)NC(=O)[C@H](Cc1ccc(OC(C(=O)O)C(=O)O)cc1)NC(=O)[C@H](CCC(=O)O)NC(=O)[C@@H](NC(=O)[C@H](CCC(N)=O)NC(=O)c1ccc2c(c1)C(=O)OC21c2ccc(O)cc2Oc2cc(O)ccc21)[C@@H](C)O)[C@@H](C)O)C(=O)N[C@@H](CCCCN)C(=O)N[C@@H](Cc1c[nH]cn1)C(=O)N1CCC[C@H]1C(N)=O [peptide 26] (5FAM-QTEY(X1)ATIKHP-NH2)
